Laboratory results from US8148347B2, “Inhibition of interaction of PSD93 and PSDS95 with nNOS and NMDA receptors” (The Johns Hopkins University, priority 2000, dated 2012).

Tests used:
Assay type in all cases: in vivo, rat
Male Sprague-Dawley rats [1] = experiment: radiant heat tail-flick test, baseline and NMDA-induced thermal hyperalgesia
Description: To examine whether PSD-95/SAP90 was required for thermal hyperalgesia triggered through NMDA receptor activation, we made an antisense oligonucletide (OND) corresponding to the PDZ domain nucleotides 241 to 258 (5′-[…]-3′; SEQ ID NO: 1) of rat PSD-95/SAP90 mRNA, as well as the sense OND and missense OND (5′-[…]-3′; SEQ ID NO: 2). All of the ONDs were compared to the Gene Bank database (GenBank accession number M96853) and found not to be complementary to any registered nucleotide sequences. The effects of antisense, sense and missense ONDs on baseline and NMDA-induced tail-flick latencies were assessed. […] To identify that NMDA-induced thermal hyperalgesia was produced specifically through NMDA receptor activation but not non-NMDA receptor activation, we observed the effects of a selective NMDA receptor antagonist, MK-801, and a selective non-NMDA receptor antagonist, DNQX, on NMDA-induced facilitation of the tail-flick reflex. […] In addition, motor weakness or dysfunction was not observed in locomotor tests (including placing reflex, grasping reflex and righting reflex) in any of the treated animals including the antisense groups (data not shown).
Animal preparation and behavioral testing. All experiments were carried out with the approval of the Animal Care Committee at the Johns Hopkins University and were consistent with the ethical guidelines of the National Institutes of Health and the International Association for the Study of Pain. Male Sprague-Dawley rats (250-300 g) were implanted with an intrathecal PE-10 catheter into the subarachnoid space at the rostral level of the spinal cord lumbar enlargement through an incision at the atlanto-occipital membrane according to the method as described.^25,27 One week or more later, the rats were injected intrathecally with saline or ONDs every 24 h for 4 days. On the fifth day, saline, NMDA, MK-801+NMDA or DNQX+NMDA was given intrathecally. Nociception was evaluated by the radiant heat tail-flick test. The doses and time point of maximal effect of NMDA used in the present study were determined based on a previous study.^24 The tail-flick apparatus (Model 33B Tail Flick Analgesy Meter, IITC Life Science, Woodland Hills, Calif., USA) generated a beam of radiant heat that was focused on the underside of the tail, 5 cm from the tip. A cut-off time latency of 13.5 s was used to avoid tissue damage to the tail. Nociception was assessed by the time required to induce tail-flick after applying radiant heat to the skin of the tail. The latency of reflexive removal of the tail from the heat was measured automatically to the nearest 0.01 s. Tail-flick latency was measured five times, and the basal latency was defined as the mean. Tail-flick data were expressed as percentage change calculated by the formula: (trial latency−baseline latency)/(baseline latency)×100%. Finally, PE-10 catheter position from each animal was confirmed when lumbar enlargement segments were removed for western blot analysis. PCR analysis of PSD-95/SAP90 in rat spinal cord. The cDNA sequences encoding portions of the PSD-95/SAP90 were amplified using the following synthetic OND primers: PSD1 (5′-[…]-3′; SEQ ID NO: 3) and PSD2 (5′-[…]-3′; SEQ ID NO: 4) for amplification of PSD-95/SAP90 codon positions 789-1525. RNA samples (1 μg) from rat spinal cord, brain and muscle were reverse transcribed to generate first-strand cDNA. The PCR reactions were performed for 25 cycles. Each cycle included 30 s at 94° C., 30 s at 55° C., and 30 s at 71° C. The PCR products were directly cloned into the TA cloning vector (Invitrogen Co., San Diego, Calif., USA) and verified by automatic DNA sequencing. Fusion protein construction and preparation. cDNA sequence encoding portion of PSD-95/SAP90 was amplified by PCR and subcloned in-frame into PGEX-2T (GIBCO, Rockville, Md., USA) via the BamHI and EcoRI restriction digest sites. […]

Male Sprague-Dawley rats [2] = experiment: measurement of isoflurane MAC (tail clamp); settings: saline-treated group, intrathecal NMDA 1.25 μg
Protocol: The ODNs were dissolved in saline before administration. As described in the previous work,^49 the rats were injected intrathecally with saline (10 μl) (control), antisense ODNs (12.5, 25, 50 μg/10 μl), sense ODN (50 μg/10 μl) and missense ODN (50 μg/10 μl), respectively, followed by an injection of 10 μl of saline to flush the catheter, every 24 h for 4 days.
(§1) On the fifth day after saline or ODNs injection, each rat was placed in a clear plastic cone and anesthetized with 5% isoflurane in oxygen for three to five minutes. After tracheostomy, the trachea of each animal was intubated with a 16-gauge polyethylene catheter. The inspired isoflurane concentration was reduced to 2%, and the animals breathed spontaneously until cannulation of a carotid artery and a jugular vein with PE-50 tubing was accomplished. The isoflurane concentration was decreased further to 1.5%, and ventilation was controlled by a Harvard Animal Respirator (Harvard Apparatus, South Natick, Mass.) adjusted according to the measurement of arterial blood gases to maintain normal partial pressure of oxygen (PO2=91-94 mmHg), partial pressure of carbon dioxide (PCO2=33-41 mmHg) and pH (7.4-7.44). Electrocardiography and systolic and diastolic blood pressure were monitored using a Grass Polygraph (Astroumed Grass, Quincy, Mass.) and Gould Pressure Transducer (Gould, Cleveland, Ohio). Rectal temperature was maintained between 36.5 and 37.5° C. by use of a heating blanket and warming lights.
A PE-10 catheter was introduced through and beyond the endotracheal tube until obstruction to passage was met and then withdrawn 1 to 2 mm. For isoflurane MAC measurement, the PE-10 catheter was connected to a parameter airway gas monitor (Datex-Engstrom, Inc., Tewksbury, Mass.). After stabilizing about 30 minutes, MAC was measured according to the methods described previously^34 using a long hemostat (8-inch Rochester Dean Hemostatic Forceps) clamped to the first ratchet lock on the tail for 1 min. The tail was always stimulated proximal to a previous test site. Gross movement of the head, extremities, or body was taken as a positive test result, whereas grimacing, swallowing, chewing, or tail flick were considered negative results. The isoflurane concentration was reduced in decrements of 0.12 to 0.15% until the negative response became positive, with 12-15 min equilibration allowed after changes in concentration.^50,51 The MAC was considered to be the concentration midway between the highest concentration that permitted movement in response to the stimulus and the lowest concentration that prevented movement. Finally, intrathecal PE-10 catheter position from each animal was confirmed.
(§2) In some saline-treated rats, after initial baseline MAC determination, NMDA at the dose of 1.25 μg^38 or saline was injected intrathecally in a volume of 10 μl saline, followed by an injection of 10 μl saline to flush the catheter. Fresh NMDA solution was prepared for each experiment. […] At this isoflurane concentration, 10 min after the intrathecal injection of NMDA, the animals were tested again for reactivity to tail clamp. The concentration of isoflurane was increased, and response to tail clamp was checked every 12-15 min thereafter until a negative response was achieved. In some antisense ODN (50 μg)-treated rats, after initial MAC determination, NMDA or saline was also administered intrathecally. The MAC for isoflurane was again determined following the aforementioned procedures.

Male Sprague-Dawley rats [3] = experiment: blood pressure and heart rate during isoflurane anesthesia; settings: saline-treated group, intrathecal NMDA 1.25 μg
Description: as §1, §2

Male Sprague-Dawley rats [4] = experiment: tests of locomotor function (placing, grasping, righting reflex) and general behaviors; settings: saline pretreatment + 1.25 μg NMDA intrathecal; five trials, mean (SD)
Protocol: The effects of ODNs on locomotor function were examined using the following methods.^52 The animals were organized randomly into six groups: control (saline); 12.5 antisense ODN; 25 μg antisense ODN; 50 μg antisense ODN; 50 μg sense ODN; 50 μg missense ODN. The rats were pretreated with ODNs or saline in the manner described above. On the fifth day, 10 μl of saline was injected intrathecally for each rat. In some saline or antisense ODN (50 μg)-treated rats, fresh NMDA solution (1.25 μg/10 μl) was injected intrathecally. The following tests were performed with the experimenter blind to which group was treated with the agents: (1) Placing reflex: The rat was held with the hind limbs slightly lower than the forelimbs, and the dorsal surfaces of the hind paws were brought into contact with the edge of a table. The experimenter recorded whether the hind paws were placed on the table surface reflexively; (2) Grasping reflex: The rat was placed on a wire grid and the experimenter recorded whether the hind paws grasped the wire on contact; (3) Righting reflex: The rat was placed on its back on a flat surface and the experimenter noted whether it immediately assumed the normal upright position. […] In addition, the rat general behaviors including spontaneous activity were observed.

## O=[N+]([O-])c1cc2nc(O)c(O)nc2cc1[N+](=O)[O-] [DNQX]
Male Sprague-Dawley rats [1]; intrathecal DNQX 20 nM/10 μl
  facilitation of the tail-flick reflex stimulated by NMDA: had no effect
Male Sprague-Dawley rats [1]; intrathecal DNQX 20 nM/10 μl + NMDA
  ΔTF latency (%): −22.6%

## C[C@]12N[C@H](Cc3ccccc31)c1ccccc12 [MK-801]
Male Sprague-Dawley rats [1]; intrathecal MK-801 10 nM/10 μl
  facilitation of the tail-flick reflex stimulated by NMDA: completely abolished
Male Sprague-Dawley rats [1]; intrathecal MK-801 10 nM/10 μl + NMDA
  ΔTF latency (%): 0.9%

## CN[C@H](CC(=O)O)C(=O)O [NMDA, N-methyl-D-aspartate]
Male Sprague-Dawley rats [2]
  increase from isoflurane control MAC: 15%
Male Sprague-Dawley rats [3]
  Heart rate: 529.20±55.20 beats/min
  diastolic blood pressure: 118.30±7.81 mmHg
  systolic blood pressure: 135.70±3.38 mmHg
Male Sprague-Dawley rats [1]; NMDA alone, intrathecal 10 nM/10 μl
  ΔTF latency (%): −25.84%
Male Sprague-Dawley rats [1]; intrathecal NMDA 5 nM/10 μl (data not shown)
  facilitation of the tail-flick reflex: induced a facilitation of the tail-flick reflex
Male Sprague-Dawley rats [1]; intrathecal NMDA 10 nM/10 μl, baseline 6.58±0.57
  tail-flick latency after NMDA: 4.88 ± 0.41 s
Male Sprague-Dawley rats [4]
  Grasping: 5 (0)
  Placing: 5 (0)
  Righting: 5 (0)
